Assay [1] concerns the target T1, EP4 (Homo sapiens, UniProt P35408). Briefly: cAMP assay, EP4. It counts as cell-based. Also noted: expressed in transfected cells; host or cells: HEK-EBNA cells. The conditions noted are these: HEK-EBNA cells expressing EP4. Here is the method: (§1) A 384-well drug plate was prepared to contain 6 test compounds, PGE2 and cAMP in 16 serial dilutions in triplicate, using a Biomek station. HEK-EBNA cells expressing a target PG receptor subtype (EP2 or EP4) were suspended in a stimulation buffer (HBSS, 0.1% BSA, 0.5 mM IBMX and 5 mM HEPES, pH 7.4) in a density of 10^4 cells/5 μL. The reaction was initiated by mixing 5 μL drug dilutions with 5 μL of HEK-EBNA cells in a well, carried out for 30 min at room temperature, and followed by the addition of 5 μL anti-cAMP acceptor beads in the control buffer with Tween-20 (25 mM NaCl, 0.03% Tween-20, 5 mM HEPES, pH 7.4). After 30 min in the dark at room temperature, the mixtures were incubated with 15 μL biotinylated-cAMP/strepavidin donor beads in Lysis/Detection buffer (0.1% BSA, 0.3% Tween-20 and 5 mM HEPES, pH 7.4) for 45 min at the room temperature. Fluorescence changes were read using a Fusion-alpha HT microplate reader.

Assay [2] addresses T2, EP2 (Homo sapiens, UniProt P43116). Put plainly: cAMP assay, EP2. It counts as cell-based. More on the design: expressed in transfected cells; host or cells: HEK-EBNA cells. The conditions noted are these: HEK-EBNA cells expressing EP2. Here is the method:
as §1

In assay [3] the target is T2, EP2. Put plainly: Ki competition binding, EP2. Also noted: expressed in transfected cells. The conditions noted are these: [3H]PGE2 competition; NA = no activity. The protocol: (§2) Data from running binding and activity studies on the compounds of the invention were carried out as described in U.S. Pat. No. 7,427,685, the contents of which are incorporated herein by reference.
Competition binding experiments were performed in a medium containing Hank's balanced salt solution, Hepes 20 mM, pH 7.3, membranes (˜60 μg protein) or 2×10^5 cells from HEK 293 cells stably expressing human EP2 receptors, [^3H]PGE2 (10 nM) and various concentrations of test compounds in a total volume of 300 μl. Reaction mixtures were incubated at 23° C. for 60 min, and were filtered over Whatman GF IB filters under vacuum. Filters were washed three times with 5 ml ice-cold buffer containing 50 mM Tris/HCl (PH 7.3). Non-specific binding was estimated in the presence of excess unlabeled PGE2 (10 μM). Binding data fitted to the binding model for a single class of binding sites, using nonlinear regression analysis. IC50 values thus obtained were converted to Ki using the equation of Ki=(IC50/(1+[L]/KD) where [L] represents PGE2 concentration (10 nM) and KD the dissociation constant for [^3H]PGE2 at human EP2 receptors (40 nM).
(§3) Cells Stably Expressing EP1, EP2, EP4, and FP Receptors
(§4) HEK-293 cells stably expressing the human or feline FP receptor, or EP1, EP2, or EP4 receptors were washed with TME buffer, scraped from the bottom of the flasks, and homogenized for 30 sec using a Brinkman PT 10/35 polytron. TME buffer was added to achieve a final 40 ml volume in the centrifuge tubes (the composition of TME is 100 mM TRIS base, 20 mM MgCl2, […]; ION HCl is added to achieve a pH of 7.4).
(§5) The cell homogenate was centrifuged at 19000 rpm for 20 min at 4° C. using a Beckman Ti-60 rotor. The resultant pellet was resuspended in TME buffer to give a final 1 mg/ml protein concentration, as determined by Biorad assay. Radioligand binding competition assays vs. [^3H-]17-phenyl PGF2α (5 nM) were performed in a 100 μl volume for 60 min. Binding reactions were started by adding plasma membrane fraction. The reaction was terminated by the addition of 4 ml ice-cold TRIS-HCl buffer and rapid filtration through glass fiber GF/B filters using a Brandel cell harvester. The filters were washed 3 times with ice-cold buffer and oven dried for one hour.
(§6) [^3H-] PGE2 (specific activity 180 Ci mmol) was used as the radio ligand for EP receptors. [^3H] 17-phenyl PGF2α was employed for FP receptor binding studies. Binding studies employing EP1, EP2, EP4 and FP receptors were performed in duplicate in at least three separate experiments. A 200 μl assay volume was used. Incubations were for 60 min at 25° C. and were terminated by the addition of 4 ml of ice-cold 50 mM TRIS-HCl, followed by rapid filtration through Whatman GF/B filters and three additional 4 ml washes in a cell harvester (Brandel). Competition studies were performed using a final concentration of 5 nM [^3H]-PGE2, or 5 nM [^3H] 17-phenyl PGF2α and non-specific binding determined with 10^−5M of unlabeled PGE2, or 17-phenyl PGF2α, according to receptor subtype studied.

The target of assay [4] is T1, EP4. Briefly: Radioligand binding, EP4. More on the design: expressed in transfected cells; membrane fraction. The conditions noted are these: [3H]PGE2 competition. Here is the method:
as §2, §3, §4, §5, §6

Structures are written as SMILES.

T2 sequence (P43116 whole entry): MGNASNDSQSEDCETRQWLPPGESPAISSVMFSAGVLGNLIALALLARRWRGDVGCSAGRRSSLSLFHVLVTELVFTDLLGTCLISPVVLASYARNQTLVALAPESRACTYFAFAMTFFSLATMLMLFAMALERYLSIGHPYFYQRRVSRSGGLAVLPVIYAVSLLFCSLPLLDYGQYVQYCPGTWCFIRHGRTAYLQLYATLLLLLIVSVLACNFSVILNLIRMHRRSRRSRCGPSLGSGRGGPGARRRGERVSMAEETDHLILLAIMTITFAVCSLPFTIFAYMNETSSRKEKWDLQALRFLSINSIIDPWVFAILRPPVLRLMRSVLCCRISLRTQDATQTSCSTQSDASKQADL
T1 sequence (P35408 whole entry): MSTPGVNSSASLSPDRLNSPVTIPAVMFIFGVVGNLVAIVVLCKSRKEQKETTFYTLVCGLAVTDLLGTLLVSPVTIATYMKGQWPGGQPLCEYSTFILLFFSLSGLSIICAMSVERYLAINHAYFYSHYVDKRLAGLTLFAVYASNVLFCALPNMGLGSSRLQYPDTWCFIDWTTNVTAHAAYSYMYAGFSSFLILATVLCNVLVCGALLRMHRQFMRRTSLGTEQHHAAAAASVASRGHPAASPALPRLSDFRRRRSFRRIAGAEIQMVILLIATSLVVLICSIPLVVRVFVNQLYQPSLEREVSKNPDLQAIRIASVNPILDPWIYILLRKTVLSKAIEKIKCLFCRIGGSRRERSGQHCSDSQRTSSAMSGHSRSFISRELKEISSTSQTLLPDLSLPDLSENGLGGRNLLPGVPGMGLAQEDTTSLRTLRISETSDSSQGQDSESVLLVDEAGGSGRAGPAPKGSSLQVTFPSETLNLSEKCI

As to `COc1cc(CC2CCCCCC2C(=O)NCc2ccc(C(=O)O)cc2)cc(OC)c1` (single isomer, unassigned) [Example 12, 4-((2-(3,5-Dimethoxybenzyl)cycloheptanecarboxamido)methyl)benzoic Acid], the results for the EC50 on EP4 [1] and at EP2 [2] were greater than 10000 nM and 1310 nM, respectively. In addition, the Ki is greater than 10000 nM at EP2 [3] and 9 nM on EP4 [4].

For `COc1cc(CC2=C(C(=O)NCc3ccc(C(=O)O)cc3)CCC2)cc(OC)c1` [Example 3, 4-((2-(3,5-Dimethoxybenzyl)cyclopent-1-enecarboxamido)methyl)benzoic Acid], the EC50 is 1 nM on EP4 [1] and 33 nM at EP2 [2]. Also, the Ki was determined as 1120 nM at EP2 [3] and 5 nM on EP4 [4].

Consider `COc1cc(CC2CCCCC2C(=O)NCc2ccc(C(=O)O)cc2)cc(OC)c1` (single isomer, unassigned) [Example 10, 4-((2-(3,5-Dimethoxybenzyl)cyclohexanecarboxamido)methyl)benzoic Acid], for which the concentration for a half-maximal effect (EC50) at EP4 [1] worked out at 0.2 nM; at EP2 [2] it was 25 nM. For the same molecule, the Ki is 908 nM on EP2 [3] and 2 nM at EP4 [4].

Consider `COc1cc(CC2CCCCCC2C(=O)NCc2ccc(C(=O)O)cc2)cc(OC)c1` (single isomer, unassigned) [Example 13, 4-((2-(3,5-Dimethoxybenzyl)cycloheptanecarboxamido)methyl)benzoic Acid], for which the EC50 on EP4 [1] was 0.2 nM; on EP2 [2], 573 nM. Besides, the Ki is 6300 nM at EP2 [3] and 2 nM at EP4 [4].

Consider `COc1cc(CC2=C(C(=O)NCc3ccc(C(=O)O)cc3)CCCC2)cc(OC)c1` [Example 8, 4-((2-(3,5-Dimethoxybenzyl)cyclohex-1-enecarboxamido)methyl)benzoic Acid], for which the EC50 came to 0.2 nM on EP4 [1] and 2 nM at EP2 [2]. Moreover, the Ki is 177 nM on EP2 [3] and 1 nM on EP4 [4].

With `O=C(O)c1ccc(CNC(=O)C2CCCC2Cc2cccc(C(F)(F)F)c2)cc1` (single isomer, unassigned) [Example 5, 4-((2-(3-(Trifluoromethyl)benzyl)cyclopentanecarboxamido)methyl)benzoic Acid], the EC50 at EP4 [1] is greater than 10000 nM; at EP2 [2], 13 nM. Moreover, the Ki was found to be 154 nM at EP2 [3] and 8 nM at EP4 [4].

At EP4 [1], `COc1ccccc1CC1CCCCC1C(=O)NCc1ccc(C(=O)O)cc1` (single isomer, unassigned) [Example 32, 4-((2-(2-Methoxybenzyl)cyclohexanecarboxamido)methyl)benzoic Acid] came in with a half-maximal effective concentration (EC50) greater than 10000 nM. For the same molecule, the Ki is 1320 nM at EP2 [3] and 7 nM at EP4 [4].

Take `COc1cc(CC2CCCC2C(=O)NCc2ccc(C(=O)O)cc2)cc(OC)c1` (single isomer, unassigned) [Example 1, 4-((2-(3,5-Dimethoxybenzyl)cyclopentanecarboxamido)methyl)benzoic Acid]: the “EP4 data cAMP EC50” value on EP4 [1] is listed as “weak”. The Ki at EP2 [3] amounted to 6190 nM; at EP4 [4] it was 30 nM.

Consider `O=C(NCc1ccc(C(=O)O)cc1)C1=C(Cc2cccc(C(F)(F)F)c2)CCC1` [Example 4, 4-((2-(3-(Trifluoromethyl)benzyl)cyclopent-1-enecarboxamido)methyl)benzoic Acid], for which the EC50 on EP4 [1] is greater than 10000 nM; at EP2 [2] it was 2 nM. The Ki at EP2 [3] amounted to 109 nM; at EP4 [4], 7 nM.

Take `COc1cccc(CC2CCCCC2C(=O)NCc2ccc(C(=O)O)cc2)c1OC` (single isomer, unassigned) [Example 15, 4-((2-(2,3-Dimethoxybenzyl)cyclohexanecarboxamido)methyl)benzoic Acid]: on EP4 [1], the EC50 was greater than 10000 nM. The Ki on EP2 [3] was determined as 7480 nM; at EP4 [4], 17 nM.

As for `COc1cc(CC2CCCC2C(=O)NCc2ccc(C(=O)O)cc2)cc(OC)c1` (single isomer, unassigned) [Example 2, 4-((2-(3,5-Dimethoxybenzyl)cyclopentanecarboxamido)methyl)benzoic Acid], the EC50 on EP4 [1] came to 9 nM. Further, the Ki at EP2 [3] is greater than 10000 nM; at EP4 [4], 84 nM.

At EP4 [1], `COc1ccc(OC)c(CC2CCCCC2C(=O)NCc2ccc(C(=O)O)cc2)c1` (single isomer, unassigned) [Example 18, 4-((2-(2,5-Dimethoxybenzyl)cyclohexanecarboxamido)methyl)benzoic Acid] gave an EC50 greater than 10000 nM. Moreover, the Ki at EP2 [3] was determined as 462 nM; at EP4 [4] it was 16 nM.

Turning to `COc1cc(CC2CCCCC2C(=O)NCc2ccc(C(=O)O)cc2)cc(OC)c1` (single isomer, unassigned) [Example 9, 4-((2-(3,5-Dimethoxybenzyl)cyclohexanecarboxamido)methyl)benzoic Acid], the EC50 at EP4 [1] is greater than 10000 nM; on EP2 [2], 389 nM. Also, the Ki at EP2 [3] was found to be 2150 nM; on EP4 [4], 2 nM.

`COc1ccc(OC)c(CC2=C(C(=O)NCc3ccc(C(=O)O)cc3)CCCC2)c1` [Example 17, 4-((2-(2,5-Dimethoxybenzyl)cyclohex-1-enecarboxamido)methyl)benzoic Acid] displayed an EC50 at EP4 [1] greater than 10000 nM. For the same molecule, the figures for the Ki at EP2 [3] and on EP4 [4] were 403 nM and 8 nM, respectively.

`COc1ccc(CC2CCCCC2C(=O)NCc2ccc(C(=O)O)cc2)cc1` (single isomer, unassigned) [Example 35, 4-((2-(4-Methoxybenzyl)cyclohexanecarboxamido)methyl)benzoic Acid] registered an EC50 at EP4 [1] greater than 10000 nM. Further, the Ki on EP2 [3] is greater than 10000 nM; at EP4 [4], 86 nM.

Source of the values: patent US10407382B2, “EP4 agonists as therapeutic compounds” (ALLERGAN, INC., priority 2014, dated 2019).
